Results on 35 compounds are retold here after ChEMBL document CHEMBL2406955, “Synthesis and cytotoxic activities of novel hybrid 2-phenyl-3-alkylbenzofuran and imidazole/triazole compounds” (Bioorg Med Chem Lett, 2013).

pIC50: −log10 of the molar value.

One assay concerns MCF7. Nature of the assay: Cytotoxicity against human MCF7 cells after 48 hrs by MTT assay. Format: functional, cell-based. As to conditions: MCF7, 48 h.
A further assay has as its system HL-60. Kind of assay: Cytotoxicity against human HL60 cells after 48 hrs by MTT assay. The format is functional, cell-based. Particulars: HL-60, 48 h. Background: Formazan colour is commonly taken as a measure of viable cells.
The subject of the next assay is SW480. Nature of the assay: Cytotoxicity against human SW480 cells after 48 hrs by MTT assay. Format: functional, cell-based. Particulars: SW480, 48 h.
In the next assay the test system is SMMC-7721. Nature of the assay: Cytotoxicity against human SMMC7721 cells after 48 hrs by MTT assay. The format is functional, cell-based. As to conditions: SMMC-7721, 48 h.
For the next assay, the system named is A549. Kind of assay: Cytotoxicity against human A549 cells after 48 hrs by MTT assay. Format: functional, cell-based. As to conditions: A549, 48 h.
In assay [1] the target is Serine/threonine-protein kinase mTOR (Homo sapiens) (UniProt P42345). Nature of the assay: Inhibition of mTOR (unknown origin) assessed as ratio of cytoplasmic to nuclear level of eukaryotic initiation factor 4E.

Regarding `O=C(C[n+]1ccn(Cc2c(-c3ccccc3)oc3ccccc23)c1)c1ccc(F)cc1`, the negative logarithm of the IC50 (pIC50) in the assay with MCF7 is 4.84; with HL-60 it was 5.53; with SW480, 4.81; in the assay with SMMC-7721, 4.87; in the assay with A549 it was under 4.40.
For `c1ccc(-c2oc3ccccc3c2Cn2cnc3ccccc32)cc1` the same measures were under 4.40, under 4.40, under 4.40, under 4.40 and under 4.40.
On to `O=C(C[n+]1cnn(Cc2c(-c3ccccc3)oc3ccccc23)c1)c1ccc(F)cc1`, for which the pIC50 in the assay on MCF7 was 4.79; with HL-60, 5.01; with SW480, 4.78; in the assay with SMMC-7721 it was 5.04; in the assay on A549, 4.82.
Regarding `O=C(c1ccccc1)C(c1ccccc1)[n+]1cnn(Cc2c(-c3ccccc3)oc3ccccc23)c1` (configuration not stated), the pIC50 is 4.68 in the assay with MCF7; 4.80 with HL-60; 4.68 with SW480; 4.79 in the assay on SMMC-7721; 4.77 in the assay on A549.
Take `CCc1n(Cc2c(-c3ccccc3)oc3ccccc23)cc[n+]1CC(=O)c1ccccc1`: the pIC50 is 5.12 in the assay on MCF7; 5.68 with HL-60; 4.92 with SW480; 5.30 in the assay on SMMC-7721; 4.90 in the assay with A549.
Regarding `O=C(C[n+]1cn(Cc2c(-c3ccccc3)oc3ccccc23)c2ccccc21)c1ccc(O)cc1`, the pIC50 with MCF7 was 4.79; with HL-60 it was 4.88; in the assay with SW480 it was 4.74; in the assay with SMMC-7721 it was 4.68; in the assay on A549, 4.47.
For `O=C(C[n+]1ccn(Cc2c(-c3ccccc3)oc3ccccc23)c1)c1ccc2ccccc2c1`, in that order: 5.43, 5.69, 5.46, 5.03 and 4.85.
For `CCc1n(Cc2c(-c3ccccc3)oc3ccccc23)cc[n+]1CC(=O)c1ccc(O)cc1`, the pIC50 in the assay on MCF7 is 4.76; in the assay with HL-60, 4.88; in the assay on SW480 it was under 4.40; in the assay on SMMC-7721 it was 4.88; in the assay on A549, 4.57.
For `c1ccc(C[n+]2cnn(Cc3c(-c4ccccc4)oc4ccccc34)c2)cc1`, the pIC50 with MCF7, in the assay with HL-60, with SW480, in the assay on SMMC-7721 and in the assay on A549 was under 4.40 each time.
In the case of `COc1ccc(C(=O)C[n+]2ccn(Cc3c(-c4ccccc4)oc4ccccc34)c2)cc1`, the pIC50 was 4.99 in the assay on MCF7; 5.64 with HL-60; 4.92 in the assay on SW480; 4.78 with SMMC-7721; 4.79 in the assay on A549. Besides, the Ratio in assay [1] came to 1.12.
Take `Brc1ccccc1C[n+]1ccn(Cc2c(-c3ccccc3)oc3ccccc23)c1`: the pIC50 was 5.25 in the assay on MCF7; 5.73 with HL-60; 4.99 in the assay with SW480; 5.18 in the assay on SMMC-7721; 4.95 with A549.
Turning to `COc1ccc(C(=O)C[n+]2cnn(Cc3c(-c4ccccc4)oc4ccccc34)c2)cc1`, the pIC50 in the assay on MCF7 was 4.83; with HL-60 it was 5.49; in the assay with SW480, 4.76; in the assay with SMMC-7721, 5.24; in the assay with A549 it was 4.86.
In the case of `O=C(C[n+]1ccn(Cc2c(-c3ccccc3)oc3ccccc23)c1)c1ccc(Br)cc1`, the pIC50 with MCF7 was 5.44; with HL-60, 5.80; with SW480, 5.47; in the assay on SMMC-7721 it was 4.75; with A549 it was 4.86.
On to `O=C(C[n+]1cnn(Cc2c(-c3ccccc3)oc3ccccc23)c1)c1ccccc1`, for which the negative-log IC50 (pIC50) in the assay on MCF7 is 4.83; with HL-60, 5.45; in the assay on SW480, 4.77; in the assay on SMMC-7721, 5.24; in the assay on A549, 4.86. Further, the Ratio in assay [1] was found to be 1.11.
Consider `O=C(C[n+]1ccn(Cc2c(-c3ccccc3)oc3ccccc23)c1)c1ccc(O)cc1`, for which the pIC50 in the assay on MCF7, with HL-60, with SW480, in the assay with SMMC-7721 and in the assay with A549 was under 4.40 each time.
With `CCc1nccn1Cc1c(-c2ccccc2)oc2ccccc12`, the pIC50 in the assay on MCF7, with HL-60, in the assay with SW480, in the assay on SMMC-7721 and with A549 was under 4.40 each time.
On to `CCCC[n+]1cnn(Cc2c(-c3ccccc3)oc3ccccc23)c1`, for which the pIC50 in the assay on MCF7, in the assay with HL-60, in the assay with SW480, in the assay on SMMC-7721 and in the assay on A549 was under 4.40 throughout.
Regarding `O=C(C[n+]1cnn(Cc2c(-c3ccccc3)oc3ccccc23)c1)c1ccc(O)cc1`, the pIC50 in the assay with MCF7, in the assay on HL-60, in the assay with SW480, in the assay on SMMC-7721 and in the assay on A549 was under 4.40 in each case.
`O=C(C[n+]1cn(Cc2c(-c3ccccc3)oc3ccccc23)c2ccccc21)c1ccc(F)cc1`: the pIC50 in the assay with MCF7 is 5.50; with HL-60 it was 5.69; in the assay on SW480, 5.48; in the assay on SMMC-7721, 5.03; in the assay on A549, 4.93.
In the case of `c1ccc(-c2oc3ccccc3c2Cn2cncn2)cc1`, the pIC50 with MCF7, with HL-60, in the assay on SW480, with SMMC-7721 and with A549 was under 4.40 each time.
As for `c1ccc(-c2oc3ccccc3c2Cn2ccnc2)cc1`, the pIC50 with MCF7, in the assay with HL-60, with SW480, in the assay on SMMC-7721 and with A549 was under 4.40 in each case.
In the case of `CCc1n(Cc2c(-c3ccccc3)oc3ccccc23)cc[n+]1CC(=O)c1ccc(F)cc1`, the pIC50 is 5.30 with MCF7; 6.00 with HL-60; 4.95 in the assay with SW480; 5.09 in the assay with SMMC-7721; 4.84 in the assay on A549.
`CCc1n(Cc2c(-c3ccccc3)oc3ccccc23)cc[n+]1CC(=O)c1ccc(OC)cc1`: the pIC50 in the assay on MCF7 is 5.50; in the assay with HL-60, 6.24; in the assay on SW480 it was 5.24; in the assay with SMMC-7721, 4.93; in the assay on A549, 4.89.
As to `CCc1n(Cc2c(-c3ccccc3)oc3ccccc23)cc[n+]1CC(=O)c1ccc(Br)cc1`, the pIC50 in the assay with MCF7 is 5.54; in the assay with HL-60 it was 6.14; in the assay with SW480, 5.45; in the assay on SMMC-7721, 5.22; in the assay with A549, 4.89.
Regarding `O=C(C[n+]1cn(Cc2c(-c3ccccc3)oc3ccccc23)c2ccccc21)c1ccc(Br)cc1`, the pIC50 in the assay on MCF7 was 5.39; in the assay on HL-60, 5.68; in the assay with SW480, 5.36; in the assay on SMMC-7721, 5.53; in the assay with A549 it was 5.28.
In the case of `c1ccc(C[n+]2cn(Cc3c(-c4ccccc4)oc4ccccc34)c3ccccc32)cc1`, the pIC50 with MCF7 was 5.46; in the assay on HL-60 it was 5.71; with SW480 it was 5.49; with SMMC-7721, 5.32; in the assay on A549, 5.15. Also, the Ratio in assay [1] turned out to be 1.54.
In the case of `CCc1n(Cc2c(-c3ccccc3)oc3ccccc23)cc[n+]1CC(=O)c1ccc2ccccc2c1`, the pIC50 in the assay on MCF7 was 5.52; in the assay with HL-60, 6.21; in the assay on SW480, 5.50; in the assay with SMMC-7721 it was 5.64; with A549 it was 5.27. In addition, the Ratio in assay [1] was 1.55.
For `Brc1ccccc1C[n+]1cnn(Cc2c(-c3ccccc3)oc3ccccc23)c1`, the pIC50 with MCF7 is 4.79; in the assay on HL-60, 5.05; with SW480, 4.72; in the assay with SMMC-7721, 4.66; with A549 it was 4.48.
Turning to `O=C(C[n+]1ccn(Cc2c(-c3ccccc3)oc3ccccc23)c1)c1ccccc1`, the pIC50 with MCF7 was 4.81; with HL-60, 5.60; in the assay on SW480, 4.81; in the assay on SMMC-7721, 5.01; in the assay with A549 it was under 4.40.
Take `O=C(C[n+]1cnn(Cc2c(-c3ccccc3)oc3ccccc23)c1)c1ccc2ccccc2c1`: the pIC50 is 5.51 with MCF7; 5.63 in the assay on HL-60; 5.54 in the assay on SW480; 5.73 with SMMC-7721; 5.69 with A549. In addition, in assay [1], the Ratio turned out to be 0.96.
For the compound `O=C(C[n+]1cn(Cc2c(-c3ccccc3)oc3ccccc23)c2ccccc21)c1ccc2ccccc2c1`, the pIC50 in the assay on MCF7 was 5.49; in the assay on HL-60, 5.63; with SW480, 5.44; with SMMC-7721 it was 5.58; with A549, 5.35.
In the case of `O=C(C[n+]1cnn(Cc2c(-c3ccccc3)oc3ccccc23)c1)c1ccc(Br)cc1`, the pIC50 was 4.98 in the assay on MCF7; 5.01 in the assay with HL-60; 4.83 with SW480; 4.97 with SMMC-7721; 4.84 in the assay on A549.
For `O=C(C[n+]1cn(Cc2c(-c3ccccc3)oc3ccccc23)c2ccccc21)c1ccccc1`, the pIC50 is 5.41 with MCF7; 5.71 in the assay on HL-60; 5.46 in the assay on SW480; 5.07 with SMMC-7721; 4.91 in the assay on A549.
As for `COc1ccc(C(=O)C[n+]2cn(Cc3c(-c4ccccc4)oc4ccccc34)c3ccccc32)cc1`, the pIC50 was 4.62 in the assay with MCF7; 6.21 with HL-60; under 4.40 with SW480; 4.78 in the assay on SMMC-7721; 5.04 in the assay with A549. Also, the Ratio in assay [1] worked out at 1.32.
`CO[C@H]1C[C@@H]2CC[C@@H](C)[C@@](O)(O2)C(=O)C(=O)N2CCCC[C@H]2C(=O)O[C@H]([C@H](C)C[C@@H]2CC[C@@H](O)[C@H](OC)C2)CC(=O)[C@H](C)/C=C(\C)[C@@H](O)[C@@H](OC)C(=O)[C@H](C)C[C@H](C)/C=C/C=C/C=C/1C`: in assay [1], the Ratio amounted to 1.59.

The pIC50 is −log10 of the IC50, conventionally taken in molar units. Lower therefore signals a large IC50.
